US20030073862A1, “Compounds” (priority 2001, published 2003)

What was measured:
[1] = biological target: human PPARγ LBD (Homo sapiens, UniProt P37231); settings: FIG. 1
Chain of human PPARγ LBD (P37231 238-503 limits assumed): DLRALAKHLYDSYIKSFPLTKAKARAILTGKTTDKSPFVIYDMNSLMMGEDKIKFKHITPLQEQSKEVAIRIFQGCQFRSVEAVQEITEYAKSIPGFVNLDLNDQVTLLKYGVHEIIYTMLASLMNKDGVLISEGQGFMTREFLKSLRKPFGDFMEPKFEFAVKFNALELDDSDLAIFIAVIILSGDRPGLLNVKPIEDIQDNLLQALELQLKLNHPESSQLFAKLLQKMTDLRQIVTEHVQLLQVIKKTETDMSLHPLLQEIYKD

SMILES: O=C(Nc1ccc(OCc2cccs2)cc1C(=O)[O-])c1ccc(Cl)cc1Cl.[Li+] [Example 1, Lithium 2-[(2,4-dichlorobenzoyl)amino]-5-(2-thienylmethoxy)benzoate]
- location of the compound in the structure of the human PPARγ LBD complex [1]: located in the ligand binding pocket of human PPARγ
- melting point: 165 to 168 °C
